In the assay the target is Cyclin-T1/Cyclin-dependent kinase 9 (Homo sapiens, UniProt O60563+P50750). Kind of assay: Inhibition of recombinant full length human N-terminal GST-fused CDK9 (1 to 372 residues)/His-tagged CyclinT1 (1 to 726 residues) expressed in baculovirus infected insect cells using FITC-X-GSRTPMY-NH2 as substrate preincubated for 10 mins followed by MgCl2 addition and measured after 90 mins in presence of 5 mM ATP by mobility shift assay.
Chain of Cyclin-T1/Cyclin-dependent kinase 9 (O60563 whole entry, the tested form may be a part): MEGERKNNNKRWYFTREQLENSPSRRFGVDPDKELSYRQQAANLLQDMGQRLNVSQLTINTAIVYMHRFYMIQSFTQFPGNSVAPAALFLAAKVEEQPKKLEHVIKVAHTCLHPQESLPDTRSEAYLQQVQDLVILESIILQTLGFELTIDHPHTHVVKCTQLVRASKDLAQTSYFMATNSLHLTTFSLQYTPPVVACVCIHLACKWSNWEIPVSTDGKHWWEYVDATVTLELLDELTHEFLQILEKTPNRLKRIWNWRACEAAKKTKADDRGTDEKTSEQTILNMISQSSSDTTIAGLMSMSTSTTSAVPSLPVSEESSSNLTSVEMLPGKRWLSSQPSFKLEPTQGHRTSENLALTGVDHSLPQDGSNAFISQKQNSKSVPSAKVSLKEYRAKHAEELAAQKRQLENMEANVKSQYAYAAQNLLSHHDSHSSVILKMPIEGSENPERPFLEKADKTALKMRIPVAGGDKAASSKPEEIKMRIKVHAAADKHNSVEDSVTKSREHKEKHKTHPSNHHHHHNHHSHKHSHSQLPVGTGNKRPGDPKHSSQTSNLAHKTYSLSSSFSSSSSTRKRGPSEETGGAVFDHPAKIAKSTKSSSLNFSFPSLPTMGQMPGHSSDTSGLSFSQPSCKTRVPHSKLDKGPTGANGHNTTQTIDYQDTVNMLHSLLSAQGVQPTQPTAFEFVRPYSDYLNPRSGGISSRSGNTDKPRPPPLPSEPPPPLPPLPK
Chain of Cyclin-T1/Cyclin-dependent kinase 9 (P50750 whole entry, the tested form may be a part): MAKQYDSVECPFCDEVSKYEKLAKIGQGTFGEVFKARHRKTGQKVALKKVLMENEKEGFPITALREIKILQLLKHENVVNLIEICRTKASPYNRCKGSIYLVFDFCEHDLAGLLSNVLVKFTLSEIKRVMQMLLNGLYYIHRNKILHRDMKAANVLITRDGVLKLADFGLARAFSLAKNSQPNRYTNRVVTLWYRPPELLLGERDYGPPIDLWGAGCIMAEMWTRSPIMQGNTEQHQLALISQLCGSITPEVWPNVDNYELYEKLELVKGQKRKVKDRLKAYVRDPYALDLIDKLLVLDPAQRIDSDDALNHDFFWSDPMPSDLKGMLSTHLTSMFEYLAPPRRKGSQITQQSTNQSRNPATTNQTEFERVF
A word on the IC50: it is the concentration at which inhibition is half-maximal. As to `CC1(C)Cc2c(-c3cc(NC(=O)[C@H]4C[C@@H](O)C4)ncc3Cl)cnn2C1` [US10717746, Example 27], the half-maximal inhibitory concentration (IC50) was determined as 25 nM.

Take `CC(=O)N[C@@H]1CCC[C@H](C(=O)Nc2cc(-c3cn[nH]c3CC(C)(C)CO)c(Cl)cn2)C1` [US10717746, Example 82a]: the half-maximal inhibitory concentration (IC50) was found to be 139 nM.

As for `CC(=O)N[C@@H]1CCC[C@H](C(=O)Nc2cc(-c3cnn4c3CCCC4O)c(Cl)cn2)C1` (stereo partly specified) [US10717746, Example 78], the concentration for half-maximal inhibition (IC50) turned out to be 60 nM.

For the molecule `CC(=O)N[C@@H]1CCC[C@H](C(=O)Nc2cc(-c3cn[nH]c3CCCCO)c(Cl)cn2)C1` [US10717746, Example 78a], the half-maximal inhibitory concentration (IC50) came out at 85 nM.

Consider `CC(=O)N[C@@H]1CCC[C@H](C(=O)Nc2cc(-c3cnn4c3CC(C)(C)C4)c(F)cn2)C1` [US10717746, Example 25], for which the half-inhibitory concentration (IC50) is 4 nM.

As for `CC(=O)N[C@@H]1CCC[C@H](C(=O)Nc2cc(-c3cnn4c3NCCC4)c(Cl)cn2)C1` [US10717746, Example 15], the IC50 is 350 nM.

As to `CC(=O)N[C@@H]1CCC[C@H](C(=O)Nc2cc(-c3cnn4c3CCCC4)c(F)cn2)C1` [US10717746, Example 63], the IC50 was found to be 51 nM.

For the molecule `CC(=O)N[C@@H]1CCC[C@H](C(=O)Nc2cc(-c3cnn4c3CC(C)(C)C4)c(C#N)cn2)C1` [US10717746, Example 39], the 50% inhibitory concentration (IC50) amounted to 62 nM.

In the case of `CC(=O)N[C@@H]1CC[C@H](C(=O)Nc2cc(-c3cnn4c3CC(C)(C)C4)c(Cl)cn2)C1` [US10717746, Example 48], the IC50 amounted to 3 nM.

With `CC(=O)N[C@@H]1CCC[C@H](C(=O)Nc2cc(-c3cnn4c3CCCCC4)c(Cl)cn2)C1` [US10717746, Example 66], the IC50 is 23 nM.

In the case of `CC(=O)N[C@@H]1CCC[C@H](C(=O)Nc2cc(-c3cnn4c3CC(C)(C)CC4)ccn2)C1` [US10717746, Example 44], the IC50 came to 8 nM.

These data come from BindingDB's records for doi:10.1021/acs.jmedchem.0c01754 (Astrazeneca, 2020).
